Reference: patent US20240099295A1, “CELL TREATMENT AGENT” (AYA Inc., priority 2021, published 2024)

Columns and labels:
Format in all cases: cell-based
[1] = tested on: human amnion-derived mesenchymal stem cells; test: Differentiation state maintenance: marker positive rate by flow cytometry; conditions: DS 0.1 mg/mL in serum-free cell culture solution, 5 days of culture
Description: Using dextran sulfate (DS) as an active ingredient of the cell treatment agent, the cell dormancy effect by DS was considered according to the effect of preventing differentiation by maintaining the cells in an undifferentiated state, as an index. As the cells, human amnion-derived mesenchymal stem cells in an undifferentiated state were used. Using a normal serum-free cell culture solution as a conditioning solution, a cell preservation solution a was prepared by adding DS to the conditioning solution at 0.1 mg/ml, and a cell preservation solution b was prepared by adding FBS to the conditioning solution at 10%. To each of the cell preservation solutions a and b, the aforementioned stem cells were added at 10^5 cells/ml, respectively, and then cultured for 5 days under normal cell culture conditions (37° C., CO2 concentration of 5%, humidity of 100%). The degrees of differentiation of stem cells before culture and after 5 days of culture were evaluated and compared by flow cytometry. The method followed the method described in Masoumeh Fakhr Taha, Vahideh Hedayati “Isolation, identification and multipotential differentiation of mouse adipose tissue-derived stem cells” Tissue and Cell 42 (2010) 211-216. The evaluation was made according to CD29 and CD44 as undifferentiation markers and CD11b, CD31, and CD45 as markers of differentiation into mesenchymal cells.

[2] = tested on: rat corneal epithelial cells; test: Cell detaching and suspending effect (Experimental Example 4)
Description: A culture solution in which FBS was added to a normal serum-free cell culture solution in a concentration of 10% (10% FBS cell culture solution) was prepared in a culture dish. To this, rat corneal epithelial cells were added at 10^6 cells/ml and cultured for 24 hours under normal cell culture conditions (37° C., CO2 concentration of 5%, humidity of 100%) to make the cultured cells fully adhere to the culture dish wall which is a scaffold.
The culture solution in the culture dish on which cultured cells obtained as described above had adhered was replaced with each of dextran sulfate aqueous solutions and a dextran aqueous solution, which are respectively obtained by dissolving dextran sulfate (Dextran sodium sulfate MW 36000-50000, available from FUJIFILM Wako Pure Chemical Corporation) and dextran (Dextran MW 35000-50000, available from FUJIFILM Wako Pure Chemical Corporation) in purified water and have concentrations shown in Table 13, and the resultant culture solutions were continuously cultured under normal cell culture conditions (37° C., CO2 concentration of 5%, humidity of 100%). For each adherent cell, detachment and suspension of adherent cells from the dish wall was observed over time. For determination of detachment and suspension, the culture dish was gently shaken manually to observe whether the cells were detached from the dish wall and suspended, and the case where 90% or more of the cells were detached and suspended was determined as detachment and suspension of adherent cells. The results are of N=4. In Table 13, “∘” means that the cells were detached and suspended, and “x” means that the cells were not detached and suspended.

[3] = tested on: Chinese hamster fibroblasts; test: as above; conditions: same experiment as Table 13 with Chinese hamster fibroblasts

Substance: dextran sulfate [DS]
- Positive rate of marker CD11b after culture ([1]; differentiation marker): 19.8%
- Positive rate of marker CD31 after culture ([1]; differentiation marker): 8.3%
- Positive rate of marker CD45 after culture ([1]; differentiation marker): 7.3%
- Positive rate of marker CD29 after culture ([1]; undifferentiation marker): 98.7%
- Positive rate of marker CD44 after culture ([1]; undifferentiation marker): 62.3%
- Detachment and suspension of adherent cells by lapse time after replacement (hour) ([2]; DS 0.1 mg/mL aqueous solution (MW 36000-50000), later lapse times up to 48 h, span not shown): ∘ (“∘” means that the cells were detached and suspended)
- Detachment and suspension of adherent cells by lapse time after replacement (hour) ([2]; DS 0.1 mg/mL aqueous solution (MW 36000-50000), starts at <12 h): x (“x” means that the cells were not detached and suspended)
- Detachment and suspension of adherent cells by lapse time after replacement (hour) ([2]; DS 1 mg/mL aqueous solution (MW 36000-50000), later lapse times up to 48 h, span not shown): ∘ (“∘” means that the cells were detached and suspended)
- Detachment and suspension of adherent cells by lapse time after replacement (hour) ([2]; DS 1 mg/mL aqueous solution (MW 36000-50000), starts at <12 h): x (“x” means that the cells were not detached and suspended)
- Detachment and suspension of adherent cells by lapse time after replacement (hour) ([2]; DS 10 mg/mL aqueous solution (MW 36000-50000), later lapse times up to 48 h, span not shown): ∘ (“∘” means that the cells were detached and suspended)
- Detachment and suspension of adherent cells by lapse time after replacement (hour) ([2]; DS 10 mg/mL aqueous solution (MW 36000-50000), starts at <12 h): x (“x” means that the cells were not detached and suspended)
- Detachment and suspension of adherent cells [3]: equivalent results were obtained
